Measured values taken from ChEMBL document CHEMBL4425197, “Discovery of a new type of scaffold for the creation of novel tyrosinase inhibitors” (Bioorg Med Chem, 2016).
Active and inactive are the calls of the source. No cut-off for these calls is given here.

Columns and labels:
[1] = biological target: T1, Tyrosinase (Agaricus bisporus) (UniProt O42713); test: Ratio of IC50 for mushroom tyrosinase diphenolase activity using L-DOPA as substrate to IC50 for mushroom tyrosinase monophenolase activity using L-tyrosine as substrate
T1 sequence (whole entry): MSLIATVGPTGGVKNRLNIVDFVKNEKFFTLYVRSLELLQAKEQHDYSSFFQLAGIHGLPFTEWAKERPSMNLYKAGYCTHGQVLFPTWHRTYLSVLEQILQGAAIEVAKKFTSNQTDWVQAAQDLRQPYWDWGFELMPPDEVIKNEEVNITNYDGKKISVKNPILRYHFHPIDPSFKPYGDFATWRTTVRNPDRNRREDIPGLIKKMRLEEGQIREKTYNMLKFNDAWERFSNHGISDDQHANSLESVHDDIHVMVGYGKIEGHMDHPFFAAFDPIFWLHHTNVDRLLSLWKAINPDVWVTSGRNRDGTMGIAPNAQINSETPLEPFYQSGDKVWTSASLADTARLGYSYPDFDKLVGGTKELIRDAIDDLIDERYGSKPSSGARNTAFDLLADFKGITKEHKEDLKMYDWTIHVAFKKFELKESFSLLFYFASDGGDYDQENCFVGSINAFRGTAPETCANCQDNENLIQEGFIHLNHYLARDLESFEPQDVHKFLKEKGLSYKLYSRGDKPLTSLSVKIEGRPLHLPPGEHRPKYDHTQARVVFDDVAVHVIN

[2] = biological target: T1, Tyrosinase (Agaricus bisporus); test: (§1) Inhibition of mushroom tyrosinase monophenolase activity using L-tyrosine as substrate measured every 60 s for 25 times
Tyrosinase [3] = biological target: T2, Tyrosinase (Agaricus bisporus, UniProt O42713); test: as §1
T2 sequence (O42713 whole entry): T1 sequence (whole entry)

Tyrosinase [4] = biological target: T2, Tyrosinase; test: (§2) Inhibition of mushroom tyrosinase diphenolase activity using L-DOPA as substrate measured every 30 s for 25 times
[5] = biological target: T1, Tyrosinase (Agaricus bisporus); test: Potency index, ratio of IC50 for benzoic acid to IC50 for test compound for inhibition of mushroom tyrosinase monophenolase activity
[6] = biological target: T1, Tyrosinase (Agaricus bisporus); test: Non-competitive inhibition of mushroom tyrosinase monophenolase activity using L-tyrosine as substrate at 5 to 10 uM measured every 60 s for 25 times by Lineweaver-Burk plot analysis
[7] = biological target: T1, Tyrosinase (Agaricus bisporus); test: Mixed-type inhibition of mushroom tyrosinase diphenolase activity using L-DOPA as substrate at 3 to 30 uM measured every 30 s for 25 times by Lineweaver-Burk plot analysis
Tyrosinase [8] = biological target: T2, Tyrosinase; test: Inhibition of mushroom tyrosinase using L-tyrosine as substrate assessed as dopachrome formation preincubated for 10 mins followed by protein addition measured after 20 mins by microplate reader analysis
Tyrosinase [9] = biological target: T2, Tyrosinase; test: Inhibition of mushroom tyrosinase using L-DOPA as substrate preincubated for 5 mins followed by substrate addition measured for 2 mins by spectrophotometric analysis
[10] = biological target: T1, Tyrosinase (Agaricus bisporus); test: as §2

Compound	Ratio IC50 [1]	inhibition [2]	IC50 (Tyrosinase [3])	IC50 (Tyrosinase [4])	other results
O=C(O)c1cccc(-c2ccccc2)c1	5.21	Dose-dependent effect	6.97 µM	36.3 µM	Ratio IC50 [5]: 30; inhibition [6]: Active; inhibition [7]: Active
Nc1ccc(C(=O)O)cc1 [AMINOBENZOIC ACID]	–	–	–	–	IC50 (Tyrosinase [8]): 3.8 µM
O=C(O)c1ccc(-c2ccccc2)cc1	3.42	Dose-dependent effect	63.2 µM	216 µM	–
O=C(O)c1ccccc1-c1ccccc1	–	–	> 1000 µM	> 1000 µM	–
O=C(O)c1ccccc1 [BENZOIC ACID]	3.66	–	224 µM	822 µM	IC50 (Tyrosinase [9]): 710 µM
COc1ccc(C(=O)O)cc1 [p-ANISIC ACID]	–	–	–	–	IC50 (Tyrosinase [8]): 420 µM
CCOC(=O)c1cccc(-c2ccccc2)c1	–	inactive	–	–	inhibition [10]: inactive
